The values that follow come from article PMC12839112, “Synthesis and Bioactivity Assessment of Novel Quinolinone–Triazole Hybrids” (Biomolecules, 2025).

Data set [1] can be described thus: Inhibition of linoleic acid peroxidation induced by AAPH radical. To be noted: 100 μM, 37 °C, pH 7.4. Here is the method:
The in vitro assays were performed at a concentration of 100 µM (a 10 mM stock solution in DMSO was used, from which several dilutions were made for the determination of IC50 values), at least in triplicate, and the standard deviation of absorbance was less than 10% of the mean. The compounds were diluted in 0.1% DMSO under sonification in an appropriate buffer in several dilutions. Statistical comparisons were made using Student’s t-test. A statistically significant difference was defined as p < 0.05. The results were compared to the corresponding reference compounds.
The determination of the ability of the synthesized compounds to inhibit linoleic acid peroxidation induced by the radical initiator 2,2-Azobis(2-amidinopropane) dihydrochloride (AAPH) was performed according to Hadjipavlou-Litina et al.. Ten microliters of the 16 mM sodium linoleate solution were added to the UV cuvette containing 0.93 mL of a 0.05 M phosphate buffer, pH 7.4, pre-thermostated at 37 °C. The oxidation reaction was initiated at 37 °C under air by the addition of 50 µL of a 40 mM AAPH solution, which was used as a free radical initiator. Oxidation was carried out in the presence of aliquots (10 µL) in the assay without antioxidants and monitored at 234 nm. Lipid oxidation was recorded in the presence of the same level of DMSO served as a negative control. results are compared to the appropriate standard compound Trolox.
In an attempt to assess the in vitro antioxidant potential of the synthesized compounds, their inhibitory activity against lipid peroxidation of linoleic acid sodium salt was examined, induced by AAPH radical under atmospheric oxygen at 37 °C. The anti-lipid peroxidation was recorded with UV spectrophotometrically. The assay is a quick and widely used method for the assessment of antioxidant activity.

The next data set concerns A549 cell line. The data set is described as follows: Cytotoxicity, MTT assay, A549 cells. To be noted: Homo sapiens, A549, 24 h, read-out: % Cytotoxicity A549 (100 μΜ).
In a further data set the test system is A375 cell line. The data set is described as follows: Cytotoxicity, MTT assay, A375 cells. To be noted: Homo sapiens, A-375, 24 h, read-out: % Cytotoxicity A375 (100 μΜ).
Data set [2] is described as follows: Cell viability, MTT assay, HaCaT cells. The conditions noted are these: human.
Experimental: (§1) The determination of the cell viability of HaCaT cells and the cell toxicity of A549 and A375 cell lines was performed according to Myriagkou et al. [57], via the MTT (3-(4,5-dimethylthiazol-2-yl)-2,5-diphenyltetrazolium bromide) assay. In a 96-well plate, cells were seeded at specific concentrations (30 × 10^4 cells/mL for HaCaT cells and 20 × 10^4 cells/mL for A549 and A375 cells) and incubated (37 °C, 5% CO2) for 24 h. Following this first incubation period, solutions of the tested compounds at various concentrations were added to the cells, and the plates were incubated for an additional 24 h. Upon the second incubation period, the appropriate volume of MTT solution (1 mg/mL in PBS, filtrated through a 0.22-μm filter) was added to each well, and the plate was incubated for 4 h, during which formazan crystals were formed. The crystals were dissolved by addition of 100 μL od DMSO in each cell and after 30 min of stirring, the absorbance was recorded at 450 nm using a microplate reader. All tests were undertaken on three replicates and compared to the control (untreated cells), the blank (medium), and the reference control (cells treated with 100 μM silibinin).
(§2) The cytotoxicity of the novel compounds was also measured via the mehtylthiazol tetrazolium (MTT) assay.
The target in data set [3] is T1, soybean lipoxygenase (LOX) (Glycine max, UniProt P08170).
T1 sequence (P08170 1-839): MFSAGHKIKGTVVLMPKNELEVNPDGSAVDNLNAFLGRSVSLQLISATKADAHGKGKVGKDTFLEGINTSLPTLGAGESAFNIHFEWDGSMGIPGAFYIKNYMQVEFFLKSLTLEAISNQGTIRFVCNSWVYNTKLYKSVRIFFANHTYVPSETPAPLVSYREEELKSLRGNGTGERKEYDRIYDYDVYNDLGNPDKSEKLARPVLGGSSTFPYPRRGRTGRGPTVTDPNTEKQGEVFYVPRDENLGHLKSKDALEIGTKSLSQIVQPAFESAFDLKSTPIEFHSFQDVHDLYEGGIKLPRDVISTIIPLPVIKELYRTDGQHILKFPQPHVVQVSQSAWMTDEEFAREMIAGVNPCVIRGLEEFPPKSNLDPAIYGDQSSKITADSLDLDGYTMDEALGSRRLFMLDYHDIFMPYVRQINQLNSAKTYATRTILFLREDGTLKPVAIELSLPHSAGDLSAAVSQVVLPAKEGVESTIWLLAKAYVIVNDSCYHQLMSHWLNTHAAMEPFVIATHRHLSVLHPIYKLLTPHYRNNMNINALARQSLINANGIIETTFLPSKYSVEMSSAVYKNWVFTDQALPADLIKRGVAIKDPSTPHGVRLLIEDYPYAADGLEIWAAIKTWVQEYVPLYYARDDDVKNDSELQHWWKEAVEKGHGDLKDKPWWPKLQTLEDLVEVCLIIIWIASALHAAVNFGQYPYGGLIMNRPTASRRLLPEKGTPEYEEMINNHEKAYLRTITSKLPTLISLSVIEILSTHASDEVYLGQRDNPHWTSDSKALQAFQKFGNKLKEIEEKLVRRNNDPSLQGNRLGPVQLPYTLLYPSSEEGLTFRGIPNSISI
In words: Soybean LOX inhibition in vitro. The data set is classed as biochemical. The conditions noted are these: sodium linoleate substrate. How it is done:
The compounds were diluted in 0.1% DMSO under sonification in an appropriate buffer in several dilutions. Statistical comparisons were made using Student’s t-test. A statistically significant difference was defined as p < 0.05.
The determination of the inhibition of soybean LOX for the synthesized compounds was performed according to Hadjipavlou-Litina et al.. The tested compounds were incubated at room temperature with sodium linoleate (0.1 mM) and 0.2 mL of enzyme solution (1/9 × 10^−4 w/v in saline). The method was based on the conversion of sodium linoleate to 13-hydroperoxylinoleic acid at 234 nm. In order to determine the […] values, different concentrations were used.
As evidence of anti-inflammatory activity, the quinolinone derivatives were examined for their ability to inhibit soybean lipoxygenase (LOX). LOX catalyzes the cleavage of arachidonic acid to leukotrienes that are found to play a crucial role in the pathogenesis of some inflammatory diseases.

Structures are written as SMILES.

Experimental for A375 cell line: as §1, §2
Experimental for A549 cell line: as §1, §2

As for `C#CCNC(=O)c1c(O)c2ccccc2n(C)c1=O` [4a, 4-hydroxy-1-methyl-2-oxo-N-(prop-2-yn-1-yl)-1,2-dihydroquinoline-3-carboxamide], in data set [1], the “Inhibition of Linoleic Acid Peroxidation (% at 100 μΜ)” value (shortened to “Inhibition … (% at 100 μΜ)”) came out at 42.7%. Besides, the cytotoxicity at 100 µM in the data set on A549 cell line is 0%; in the data set on A375 cell line, 7%. The viability at 24 h, 100 µM in data set [2] was determined as 61.5%.
`C#CCNC(=O)c1c(O)c2ccccc2n(Cc2ccccc2)c1=O` [4b, 1-benzyl-4-hydroxy-2-oxo-N-(prop-2-yn-1-yl)-1,2-dihydroquinoline-3-carboxamide]: the “Inhibition … (% at 100 μΜ)” value in data set [1] is 14.7%. The IC50 in data set [3] was 43.2 µM. Also, the cytotoxicity at 100 µM came to 45.7% in the data set with A549 cell line and 7.6% in the data set on A375 cell line. Besides, the viability at 24 h, 100 µM in data set [2] came out at 88.7%.
Regarding `C#CCNC(=O)c1c(O)c2ccccc2n(CC)c1=O` [4c, 1-ethyl-4-hydroxy-2-oxo-N-(prop-2-yn-1-yl)-1,2-dihydroquinoline-3-carboxamide], the “Inhibition … (% at 100 μΜ)” value in data set [1] came out at 100%. In addition, the IC50 in data set [3] stood at 22.5 µM. In addition, the cytotoxicity at 100 µM with A549 cell line came to 16.4%; in the data set on A375 cell line, 0.2%. Besides, the viability at 24 h, 100 µM in data set [2] amounted to 90.5%.
`C#CCNC(=O)c1c(O)c2ccccc2n(CCCCCCCC)c1=O` [4e, 4-hydroxy-1-octyl-2-oxo-N-(prop-2-yn-1-yl)-1,2-dihydroquinoline-3-carboxamide]: in data set [1], the “Inhibition … (% at 100 μΜ)” value came to 34.9%. The compound also showed an IC50 in data set [3] of 48.3 µM. Moreover, the figures for the cytotoxicity at 100 µM in the data set with A549 cell line and with A375 cell line were 33.7% and 22.6%, respectively. In data set [2], this compound yielded a viability at 24 h, 100 µM of 76.2%.
For `C#CCNC(=O)c1c(O)c2ccccc2n(CC=Cc2ccccc2)c1=O` [4g, 1-cinnamyl-4-hydroxy-2-oxo-N-(prop-2-yn-1-yl)-1,2-dihydroquinoline-3-carboxamide], the “Inhibition … (% at 100 μΜ)” value in data set [1] amounted to 27.6%. The same compound gave an IC50 in data set [3] of 51.2 µM. Besides, the cytotoxicity at 100 µM in the data set with A549 cell line was determined as 35.2%; in the data set on A375 cell line it was 11.7%. Moreover, the viability at 24 h, 100 µM in data set [2] turned out to be 100%.
For `Cn1c(=O)c(C(=O)NCc2cn(Cc3ccccc3)nn2)c(O)c2ccccc21` [5a, N-((1-benzyl-1H-1,2,3-triazol-4-yl)methyl)-4-hydroxy-1-methyl-2-oxo-1,2-dihydroquinoline-3-carboxamide], in data set [1], the “Inhibition … (% at 100 μΜ)” value worked out at 98.0%. In data set [3], this compound returned an IC50 of 10 µM. For the same compound, the cytotoxicity at 100 µM amounted to 24.2% in the data set with A549 cell line and 0% in the data set on A375 cell line. In data set [2], this compound came in with a viability at 24 h, 100 µM of 100%.
On to `O=C(NCc1cn(Cc2ccccc2)nn1)c1c(O)c2ccccc2n(Cc2ccccc2)c1=O` [5b, 1-benzyl-N-((1-benzyl-1H-1,2,3-triazol-4-yl)methyl)-4-hydroxy-2-oxo-1,2-dihydroquinoline-3-carboxamide], for which the “Inhibition … (% at 100 μΜ)” value in data set [1] is given as 89.0%. Besides, it took 46 µM to reach half-maximal inhibition in data set [3] (IC50). In addition, the figures for the cytotoxicity at 100 µM in the data set on A549 cell line and in the data set on A375 cell line were 49.9% and 0%, respectively. Further, in data set [2], the viability at 24 h, 100 µM is 86.5%.
Take `CCn1c(=O)c(C(=O)NCc2cn(Cc3ccccc3)nn2)c(O)c2ccccc21` [5c, N-((1-benzyl-1H-1,2,3-triazol-4-yl)methyl)-1-ethyl-4-hydroxy-2-oxo-1,2-dihydroquinoline-3-carboxamide]: in data set [1], the “Inhibition … (% at 100 μΜ)” value is 94.0%. Moreover, the midpoint of inhibition in data set [3], the IC50, lay at 51.5 µM. Further, the cytotoxicity at 100 µM with A549 cell line and in the data set on A375 cell line was 0% each time. This compound displayed a viability at 24 h, 100 µM in data set [2] of 100%.
`CCn1c(=O)c(C(=O)NCc2cn(CCCc3ccccc3)nn2)c(O)c2ccccc21` [5d, 1-ethyl-4-hydroxy-2-oxo-N-((1-(3-phenylpropyl)-1H-1,2,3-triazol-4-yl)methyl)-1,2-dihydroquinoline-3-carboxamide]: the “Inhibition … (% at 100 μΜ)” value in data set [1] is 92.0%. In addition, the IC50 in data set [3] is 47.5 µM. Also, the cytotoxicity at 100 µM is 28.9% in the data set with A549 cell line and 10.5% with A375 cell line. In data set [2], this compound returned a viability at 24 h, 100 µM of 99.6%.
Regarding `CCn1c(=O)c(C(=O)NCc2cn(C/C=C/c3ccccc3)nn2)c(O)c2ccccc21` [5e, (E)-N-((1-cinnamyl-1H-1,2,3-triazol-4-yl)methyl)-1-ethyl-4-hydroxy-2-oxo-1,2-dihydroquinoline-3-carboxamide], the “Inhibition … (% at 100 μΜ)” value in data set [1] was 91.0%. The same compound yielded an IC50 in data set [3] of 45 µM. Further, the cytotoxicity at 100 µM in the data set with A549 cell line is 7.3%; in the data set on A375 cell line it was 35.2%. Besides, the viability at 24 h, 100 µM in data set [2] came out at 27.6%.
Regarding `O=C(NCc1cn(Cc2ccccc2)nn1)c1c(O)c2ccccc2n(CCCc2ccccc2)c1=O` [5f, N-((1-benzyl-1H-1,2,3-triazol-4-yl)methyl)-4-hydroxy-2-oxo-1-(3-phenylpropyl)-1,2-dihydroquinoline-3-carboxamide], the “Inhibition … (% at 100 μΜ)” value in data set [1] is given as 98.0%. For the same compound, the IC50 in data set [3] is 50 µM. In addition, the cytotoxicity at 100 µM in the data set with A549 cell line was 12.5%; with A375 cell line, 23.7%. This compound also showed a viability at 24 h, 100 µM in data set [2] of 100%.
As for `CC(C)=CCn1c(=O)c(C(=O)NCc2cn(Cc3ccccc3)nn2)c(O)c2ccccc21` [5g, N-((1-benzyl-1H-1,2,3-triazol-4-yl)methyl)-4-hydroxy-1-(3-methylbut-2-en-1-yl)-2-oxo-1,2-dihydroquinoline-3-carboxamide], the “Inhibition … (% at 100 μΜ)” value in data set [1] amounted to 83.0%. In data set [3], this compound displayed an IC50 of 75 µM. The cytotoxicity at 100 µM with A549 cell line was 13.4%; in the data set with A375 cell line, 46.8%. The compound further displayed a viability at 24 h, 100 µM in data set [2] of 100%.
`CCn1c(=O)c(C(=O)NCc2cn(CC=C(C)C)nn2)c(O)c2ccccc21` [5i, 1-ethyl-4-hydroxy-N-((1-(3-methylbut-2-en-1-yl)-1H-1,2,3-triazol-4-yl)methyl)-2-oxo-1,2-dihydroquinoline-3-carboxamide]: the “Inhibition … (% at 100 μΜ)” value in data set [1] was found to be 96.0%. Moreover, half-maximal inhibition in data set [3] (IC50) required 70 µM.
Consider `COc1cc(C2Oc3cc([C@H]4Oc5cc(O)cc(O)c5C(=O)[C@@H]4O)ccc3OC2CO)ccc1O` (some centres unmarked) [Silibinin, silibinin, reference compound], for which the values for the cytotoxicity at 100 µM in the data set with A549 cell line and in the data set with A375 cell line were 57.4% and 12.6%, respectively. In data set [2], this compound came in with a viability at 24 h, 100 µM of 47.2%.
Regarding `Cc1c(C)c2c(c(C)c1O)CCC(C)(C(=O)O)O2` (centres unmarked) [Trolox, reference compound], the “Inhibition … (% at 100 μΜ)” value in data set [1] is reported as 88.0%.
